The results in this text go back to US20210277003A1, “OGA INHIBITOR COMPOUNDS” (Janssen Pharmaceutica NV, priority 2018, published 2021).

A value given as a limit tells only on which side of the number the result lay.

Experiment [1] deals with T1, recombinant human Meningioma Expressed Antigen 5 (MGEA5), also referred to as O-GlcNAcase (OGA) (Homo sapiens, UniProt O60502).
T1 construct: Full length OGA enzyme was purchased at OnGene (cat #TP322411); purchased OnGene (so in the source)
T1 sequence (O60502 1-916): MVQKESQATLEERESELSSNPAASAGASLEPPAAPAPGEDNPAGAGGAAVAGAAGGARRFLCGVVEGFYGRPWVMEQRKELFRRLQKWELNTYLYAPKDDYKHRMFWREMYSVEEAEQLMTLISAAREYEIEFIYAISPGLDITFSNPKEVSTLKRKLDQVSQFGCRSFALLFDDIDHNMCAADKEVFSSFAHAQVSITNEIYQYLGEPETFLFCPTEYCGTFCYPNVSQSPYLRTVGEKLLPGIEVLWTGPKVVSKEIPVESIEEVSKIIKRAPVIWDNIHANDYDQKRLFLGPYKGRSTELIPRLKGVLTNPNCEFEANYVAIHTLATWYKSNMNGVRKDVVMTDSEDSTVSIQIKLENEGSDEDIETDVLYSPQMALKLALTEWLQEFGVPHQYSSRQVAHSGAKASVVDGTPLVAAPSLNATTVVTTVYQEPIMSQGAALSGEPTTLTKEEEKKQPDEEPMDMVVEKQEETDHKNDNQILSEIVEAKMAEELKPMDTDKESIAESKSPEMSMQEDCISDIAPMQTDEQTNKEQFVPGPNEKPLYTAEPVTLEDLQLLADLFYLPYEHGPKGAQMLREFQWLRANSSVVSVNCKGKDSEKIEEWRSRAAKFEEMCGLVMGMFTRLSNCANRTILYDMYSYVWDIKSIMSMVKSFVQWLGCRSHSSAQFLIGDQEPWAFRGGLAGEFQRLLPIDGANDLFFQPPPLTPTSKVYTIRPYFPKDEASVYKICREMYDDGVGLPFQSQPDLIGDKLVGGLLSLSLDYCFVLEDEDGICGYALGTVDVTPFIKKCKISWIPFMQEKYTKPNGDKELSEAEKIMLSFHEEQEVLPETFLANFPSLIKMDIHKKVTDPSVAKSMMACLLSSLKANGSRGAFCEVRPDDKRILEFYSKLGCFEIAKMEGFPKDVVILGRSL
Description: OGA biochemical assay: inhibition of hydrolysis of fluorescein mono-ß-D-N-Acetyl-Glucosamine (FM-GlcNAc), fluorescence readout. The following applies: FM-GlcNAc substrate; for Emax: read-out: Enzymatic Emax (%); for IC50: read-out: Enzymatic hOGA, pIC50 (converted). A digest of the protocol: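 Full-length recombinant human OGA (2 nM) was pre-incubated with compound for 60 min, then reacted with 100 uM FM-GlcNAc for 6 h at room temperature in 200 mM citrate/phosphate pH 7.2 with 0.005% Tween-20. Reactions were stopped with pH 11.0 carbonate and fluorescein read at 485/538 nm. IC50 and Hill coefficient came from curve fitting.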

Experiment [2] concerns OGA in HEK293 cells inducible for P301L mutant human Tau (isoform 2N4R). As to the kind of experiment: OGA cellular assay: immunocytochemical detection of O-GlcNAcylated proteins (CTD110.6 antibody). Type of experiment: cell-based. The following applies: Homo sapiens, HEK293, 6 h, 6 hours incubation; for Emax: maximum = Thiamet G 200 uM; for EC50: read-out: Cellular hOGA, pEC50 (converted). In outline: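 Cells seeded 2 days ahead in low-glucose assay medium and exposed to compounds for 6 h at 0.2% DMSO, then PFA-fixed and immunostained. Signal is 488 nm intensity from imaging (9 fields/well), with Hoechst nuclei counts as a toxicity check. IC50 from non-linear regression, with 200 uM Thiamet G per plate as maximum inhibition.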

The term Emax denotes the maximal effect, on the per cent scale that the assay sets. For the compound `Cc1cc2c(c(C)c1Nc1nccc3c1ccn3CC1CC(F)(F)C1)OCCO2` [Compound 175], in experiment [1], the Emax was 100% and the IC50 was 6.31 nM. Also, in experiment [2], the Emax was determined as 80.1% and the EC50 was 37.2 nM.
For `Clc1cccc(Cl)c1Nc1nccc2c1ccn2CCC1CC1` [Compound 70], in experiment [1], the Emax amounted to 103% and the IC50 was 1.7 nM. Besides, in experiment [2], the Emax was 82% and the EC50 was 37.2 nM.
On the same counts, the results for `Cc1cc2cnn(C)c2c(C)c1Nc1nccc2c1ccn2CC(F)(F)C(C)C` [Compound 189] are 100%, 1.05 nM, 101% and 3.16 nM.
For `CCCCn1ccc2c(Nc3c(C)cc(C)cc3C)nccc21` [Compound 68] the same measures were 104%, 3.8 nM, 87% and 57.5 nM.
With `Cc1ccnc(OC(F)F)c1Nc1nccc2c1ccn2CC1CC(F)(F)C1` [Compound 114], in experiment [1], the “Enzymatic hOGA; pIC50” value was 7.03 and the Emax was found to be 100%. Also, in experiment [2], the Emax turned out to be 49.6% and the EC50 was 871 nM.
`CCCCn1ccc2c(Nc3c(C)cccc3C(C)C)nccc21` [Compound 67]: in experiment [1], the Emax stood at 104% and the IC50 was 0.891 nM. Moreover, in experiment [2], the Emax came to 99% and the EC50 was 16.2 nM.
On the same counts, the results for `Cc1cnc(-n2ccc3c(Nc4c(Cl)cc(F)cc4Cl)nccc32)o1` [Compound 183] are 95.3%, 501 nM, 13.9% and above 1000 nM.
On to `CCCCn1ccc2c(Nc3c(C)cncc3Cl)nccc21` [Compound 5], for which, in experiment [1], the “Enzymatic hOGA; pIC50” value came out at 7.95 and the Emax was determined as 101%. In experiment [2], the Emax was found to be 67% and the EC50 is 67.6 nM.
Consider `CCC(F)(F)Cn1ccc2c(Nc3c(Cl)cccc3Cl)nccc21` [Compound 113], for which, in experiment [1], the “Enzymatic hOGA; pIC50” value is listed as 8.9 and the Emax was 106%. In addition, in experiment [2], the Emax came to 93% and the EC50 is 7.94 nM.
As for `Cc1ccnc(C(F)F)c1Nc1nccc2c1ccn2CC(C)(F)F` [Compound 134], in experiment [1], the “Enzymatic hOGA; pIC50” value turned out to be 8.28 and the Emax was found to be 99.9%. For the same compound, in experiment [2], the Emax was determined as 77.5% and the EC50 is 81.3 nM.
For `CC[C@@H](O)Cn1ccc2c(Nc3c(C)cc(C#N)cc3Cl)nccc21` [Compound 123a] the same measures were 7.56, 102%, 63.8% and 437 nM.
Take `CCCCn1ccc2c(Nc3c(Cl)ccc4c3ccn4C)nccc21` [Compound 14]: in experiment [1], the “Enzymatic hOGA; pIC50” value was 8.54 and the Emax is 103%. Moreover, in experiment [2], the Emax stood at 80% and the EC50 was 182 nM.
With `Cc1cc(F)cc(C)c1Nc1nccc2c1ccn2CC(C)(F)F` [Compound 126], in experiment [1], the “Enzymatic hOGA; pIC50” value is listed as 8.67 and the Emax worked out at 100%. In addition, in experiment [2], the Emax came to 87.1% and the EC50 is 10.5 nM.
On the same counts, the results for `FC(F)CCn1ccc2c(Nc3c(Cl)cccc3Cl)nccc21` [Compound 97] are 7.9, 101%, 78% and 347 nM.
Regarding `CC[C@H](O)Cn1ccc2c(Nc3c(C)cc(C(F)(F)F)cc3C)nccc21` [Compound 124b], in experiment [1], the “Enzymatic hOGA; pIC50” value is 8.04 and the Emax was found to be 102%. In addition, in experiment [2], the Emax amounted to 76.7% and the EC50 was 27.5 nM.
Regarding `Cc1ccnc(C(C)(C)F)c1Nc1nccc2c1ccn2CC(C)(F)F` [Compound 205], in experiment [1], the Emax is 98.2% and the IC50 is 3.02 nM. In experiment [2], the Emax was 88.6% and the EC50 is 9.55 nM.
Consider `Cc1ccnc(C)c1Nc1nccc2c1ccn2CCC(C)(F)F` [Compound 90], for which, in experiment [1], the “Enzymatic hOGA; pIC50” value is reported as 7.31 and the Emax amounted to 102%. Besides, in experiment [2], the Emax was 62% and the EC50 is 363 nM.
On the same counts, the results for `CCCCn1ccc2c(Nc3c(C)cnnc3C(C)C)nccc21` [Compound 19] are 7.8, 102%, 94% and 83.2 nM.
For `CCCCn1cc(F)c2c(Nc3c(C)cncc3C)nccc21` [Compound 34], in experiment [1], the Emax was found to be 99% and the IC50 is 178 nM. Moreover, in experiment [2], the maximal effect (Emax) worked out at 36% and the EC50 is above 1000 nM.
For `Cc1ccnc(C)c1Nc1nccc2c1ccn2CCC1COC1` [Compound 38] the same measures were 100%, 115 nM, 63% and 562 nM.
On the same counts, the results for `CC(C)=C(F)Cn1ccc2c(Nc3c(C)cc(-c4cnn(C)c4)cc3C)nccc21` [Compound 208] are 101%, 10.2 nM, 90.1% and 72.4 nM.
Regarding `Cc1cncc(Cl)c1Nc1nccc2c1ccn2CC1CC1` [Compound 110], in experiment [1], the “Enzymatic hOGA; pIC50” value is 7.54 and the Emax is 100%. In addition, in experiment [2], the Emax was determined as 48% and the EC50 is 363 nM.
In the case of `N#CCCCn1ccc2c(Nc3c(Cl)cccc3Cl)nccc21` [Compound 50], in experiment [1], the Emax amounted to 102% and the IC50 is 12.6 nM. In experiment [2], the Emax amounted to 78% and the EC50 was 302 nM.
`FCCCCn1ccc2c(Nc3c(Cl)cccc3Cl)nccc21` [Compound 7]: in experiment [1], the “Enzymatic hOGA; pIC50” value is given as 7.98 and the Emax turned out to be 103%. In experiment [2], the Emax turned out to be 84% and the EC50 was 214 nM.
For `Cc1cc(OC(F)F)nc(C)c1Nc1nccc2c1ccn2CC(C)(F)F` [Compound 149] the same measures were 8.58, 101%, 96.4% and 10.7 nM.
On the same counts, the results for `Cc1cc(C(F)(F)F)nc(C)c1Nc1nccc2c1ccn2CC(C)(F)F` [Compound 131] are 8.36, 102%, 78.7% and 15.5 nM.
Regarding `Cc1ncnc(C(C)C)c1Nc1nccc2c1ccn2CCC1CC1` [Compound 193], in experiment [1], the Emax stood at 102% and the IC50 was 6.31 nM. Moreover, in experiment [2], the Emax stood at 89.7% and the EC50 is 112 nM.
On the same counts, the results for `Cc1cccc(S(C)(=O)=O)c1Nc1nccc2c1ccn2CC1CC(F)(F)C1` [Compound 174] are 99.3%, 12.9 nM, 87% and 93.3 nM.
